Measurements published in patent US6958236B2, “Control of gene expression in plants” (priority 2000, dated 2005).
Several values for one entry are separate records, joined by “and”; a condition that tells them apart may be missing. Equal entries are not always repeated.

Experiments:
[1] = system: GAL4×10-Luciferase vector pCGS206; assay: Tobacco BY2 suspension cells bombarded with receptor vector and GAL4x10-Luciferase vector, GUS-normalized luciferase; format: cell-based, Nicotiana tobaccum L. cv. Bright Yellow 2; conditions: absence of the EcR receptor
Experimental: The GAL4-MV expression vector pCGS432 and the GAL4×10-Luciferase vector pCGS206 are simultaneously delivered into BY2 suspension cells (Nicotania tobacum L. cv. Bright Yellow 2) by high velocity microprojectile bombardment. A β-glucuronidase (GUS) vector is included as an internal control for transfection efficiency between samples. Transfected cells are incubated overnight in the presence and absence of the appropriate chemical ligand (tebufenozide (Teb), RH5889) in BY2 liquid culture media. After incubation, the cells are harvested and lysed by mechanical disruption. Cellular debris is removed by centrifugation at 20,800 g at 4° C. for 10 minutes. Cell lysates are assayed for luciferase expression levels using the Promega Luciferase Kit (Promega cat #E1500) using a Turner Designs TD 20/20 luminometer. GUS expression levels are determined using the GUS-Light kit (Tropix). […]
The GAL4-Manduca EcR-C1 expression vectors (pCGS441, pCGS442, and pCGS443) and the GAL4×10-Luciferase vector pCGS206 (Example 10) are simultaneously delivered into BY2 suspension cells (Nicotiana tobaccum L. cv. Bright Yellow 2) by high velocity microprojectile bombardment. […] Cell lysates are assayed for luciferase expression levels using the Promega Luciferase Kit (cat #E1500) using a Turner Designs TD 20/20 luminometer. β-glucuronidase expression levels are determined using the GUS-Light kit (Tropix). […]

[2] = system: Transgenic plants harboring DNA from the plasmids pCGS202 and pCGS601; assay: Chemical induction of transgenic maize plants, photon emission of leaves after luciferin spray; format: in vivo
Experimental: This mixture is applied directly to one leaf of a plant while a control formulation mixture containing ethanol instead of tebufenozide is applied to another leaf. Treatments are left on the leaves between 24-48 hours. Plants are then treated by spraying the leaves with a mixture containing 7.5 mM luciferin and 1% surfactant and incubating for 5 minutes. Either whole plants or tissues are placed into a dark box and photon emission is monitored using a digital camera and software that counts the accumulated photons that are emitted. Both the image of the tissue and the total photon count is recorded.
Plants at V5 stage are treated as above. The plants treated with tebufenozide emit substantial amounts of light compared with those treated with ethanol only. The table below contains actual counts of leaf samples from maize plants transformed with pCGS601 and pCGS202.
Late stage post pollinated maize plants are also treated as above. Leaves are analyzed as above and the total photon counts are recorded in the table below.

[3] = system: Transgenic maize plants containing pCGS601 and pCGS202; assay: Chemical induction of transgenic maize plants, luciferase activity of leaf extract; format: in vivo
Experimental: A formulation mixture containing 10% of a 2.0 mM tebufenozide solution in ethanol and 1% surfactant is applied directly to the leaves of the transgenic maize plants. The solution is left on the leaves between 18 and 40 hours. Leaves are then frozen in liquid nitrogen and ground to a powder. Subsequently, leaves are homogenized in cell culture lysis reagent (CCLR; 25 mM Tris-phosphate pH 7.8, 2 mM DTT, 2 mM 1,2-diaminoclyclohexane-N,N,N′,N′-tetraacetic acid, 10% glycerol, and 1% triton X-100). After spinning for 7 minutes at 14,000 g to pellet the cell debris, 20 μl of the supernatant is assayed for luciferase activity by the standard method (as described in the preceding examples).
Six plants are treated with chemistry: three with ethanol as control and three with tebufenozide. After 40 hours, plants are assayed for luciferase activity.
To determine fold induction with tebufenozide, leaves of individual plants are compared for activity. Using the same plant, one leaf is treated with ethanol and another with tebufenozide. The plants are incubated for 18 hours and assayed for luciferase activity as described above.

## CCc1ccc(C(=O)NN(C(=O)c2cc(C)cc(C)c2)C(C)(C)C)cc1 [tebufenozide]
[1]
  activation of the luciferase reporter without receptor: does not activate the reporter in the absence of the EcR receptor
[2]; in vivo
  Fold Induction: 116 Fold
[2]; leaf, late stage post pollinated maize plants
  Total Photons Counted: 110,766
[2]; leaf, late stage post pollinated maize plants, tebufenozide vs ethanol
  Fold Induction: 30 Fold
[2]; leaf, plants at V5 stage, 2.0 mM RH5992 in 1% surfactant, 24-48 hours
  Total Photons Counted: 187,784
[3]; leaves treated with 10% of 2.0 mM tebufenozide solution, 1% surfactant, 40 hours, individual plants 4-6
  Activity (luciferase): 2729 and 745.3 and 2373
[3]; maize, in vivo, 18 h, 0.2 mM
  fold induction after treatment with tebufenozide: 10-40 fold
[3]; transgenic maize plants, 40 hours
  induction above the ethanol controls: significant induction
